Measured values as given in patent publication US10160785B2, “Antimicrobial peptides and their use for the treatment of topical infections” (priority 2015, dated 2018).
In brackets after ≈: the same amount, converted by molar mass.

Tests used:
[1] = tested on: Candida albicans (Olomouc); experiment: microbe, parasite or virus in culture; assay type: cell-based; conditions: Candida albicans; RPMI broth microdilution, 35° C., 48 hours, visual; read-out: Antifungal activity MIC C. albicans Olomouc
Protocol: (§1) All yeasts Candida albicans (Olomouc) and ATCC MYA-2876, Candida glabrata ATCC 2001 and DSY 565, Candida dubliniensis ATCC MYA-646, Candida krusei ATCC 6258 and Candida tropicalis ATCC 750 were sub-cultured from sterile vials onto Sabouraud dextrose agar, which was composed of 40 g dextrose (Penta, Czech Republic), 10 g peptone (OXOID, Great Britain) and 17 g agar (OXOID), dissolved in 1 l of distilled water, and cultivated for 24 hours at 35° C.
(§2) All strains were stored in a way that minimizes the possibility of mutation. Candida spp. were grown overnight in liquid YPD medium which is composed of 10 g yeast extract (DIFCO, USA), 20 g peptone (OXOID), and 20 g dextrose (Penta) dissolved in 1 l distilled water. Then the overnight culture was cryogenically preserved by suspending in 50% glycerol solution (1:1) in small vials and stored at −80° C.
(§3) The inoculum was prepared by picking five colonies from 24-hour-old cultures of Candida spp. The colonies were suspended in 1 ml of sterile saline solution and vortexed for 15 seconds. Optical density of the suspension was adjusted spectrophotometrically by adding sterile saline solution to produce optical density of 0.18 at 600 nm. A working suspension was made by a 1:50 dilution followed by a 1:20 dilution of the stock suspension with RPMI 1640 broth medium which was composed of L-glutamine without NaHCO3 (BioSera, France), and with 0.165 mol.l^−1 MOPS (Duchefa, Netherland)—further as RPMI broth medium.
(§4) The broth microdilution test was performed by using sterile, disposable, multi-well microdilution plates (96-well). The peptides in the concentrations 0.625-160 μmol.l^−1 were pipetted into the wells in 100 μl volumes. Each well of the plate was inoculated with 100 μl of the diluted inoculum suspension. Final yeast density in each well was 5×10^2 up to 2.5×10^3 CFU/ml. The microdilution plates were incubated without shaking at 35° C. and observed for the presence or absence of visible growth for 48 hours.
(§5) Drug-free medium without inoculation served as negative control; the growth positive control contained inoculated drug-free medium. Amphotericin B was used as control drug to ensure quality of Candida strains.
(§6) The minimal inhibition concentrations (MICs) were visually determined 48 hours after inoculation. The MIC values were defined as the lowest concentration in which no observable growth is noticeable.
(§7) All yeast isolates were obtained from the Institute of Physiology of the Academy of Sciences of the Czech Republic. Candida albicans (Olomouc) came from the Faculty of Medicine and Dentistry, Palacý University Olomouc.

[2] = tested on: Candida albicans ATCC MYA-2876; experiment: microbe, parasite or virus in culture; assay type: cell-based; conditions: Candida albicans; RPMI broth microdilution, 35° C., 48 hours, visual; read-out: Antifungal activity MIC C. albicans ATCC MYA-2876
Protocol: as §1, §2, §3, §4, §5, §6, §7

[3] = tested on: Candida dubliniensis ATCC MYA-646; experiment: microbe, parasite or virus in culture; assay type: cell-based; conditions: Candida dubliniensis; RPMI broth microdilution, 35° C., 48 hours, visual; read-out: Antifungal activity MIC C. dubliniensis ATCC MYA-646
Protocol: as §1, §2, §3, §4, §5, §6, §7

[4] = tested on: Candida glabrata ATCC 2001; experiment: microbe, parasite or virus in culture; assay type: cell-based; conditions: Nakaseomyces glabratus, ATCC2001; RPMI broth microdilution, 35° C., 48 hours, visual; read-out: Antifungal activity MIC C. glabrata ATCC 2001
Protocol: as §1, §2, §3, §4, §5, §6, §7

Candida glabrata DSY 565 = experiment: microbe, parasite or virus in culture; assay type: cell-based; conditions: Nakaseomyces glabratus, DSY565; RPMI broth microdilution, 35° C., 48 hours, visual; read-out: Antifungal activity MIC C. glabrata DSY 565
Protocol: as §1, §2, §3, §4, §5, §6, §7

Candida krusei ATCC 6258 = experiment: microbe, parasite or virus in culture; assay type: cell-based; conditions: Pichia kudriavzevii, ATCC6258; RPMI broth microdilution, 35° C., 48 hours, visual; read-out: Antifungal activity MIC C. krusei ATCC 6258
Protocol: as §1, §2, §3, §4, §5, §6, §7

[5] = tested on: Candida tropicalis ATCC 750; experiment: microbe, parasite or virus in culture; assay type: cell-based; conditions: Candida tropicalis, ATCC750; RPMI broth microdilution, 35° C., 48 hours, visual; read-out: Antifungal activity MIC C. tropicalis ATCC 750
Protocol: as §1, §2, §3, §4, §5, §6, §7

[6] = tested on: Candida albicans (Olomouc) biofilm; experiment: C. albicans biofilm, remaining metabolic activity (XTT); assay type: cell-based
Protocol: Candida albicans (Olomouc) was sub-cultured overnight in YPD medium (10 g yeast extract (DIFCO, USA), 20 g peptone (OXOID), 20 g glucose (Penta) dissolved in 1 L of distilled water) at constant shaking (100 RPM) at 37° C. Next day, the overnight culture was diluted 1:100 into fresh YPD medium and incubated at constant shaking (200 RPM) at 37° C. until the mid-exponential growth phase was reached. Then the cells were harvested and washed twice by centrifugation in physiological solution (5000 RPM; 5 min). Cells were suspended in sterile salt solution and their optical density was determined at 600 nm.
A final yeast suspension was prepared at a cell density of 1×10^6 CFU (corresponding to optical density of 0.17 at 600 nm) in RPMI 1640 medium with L-glutamine (BioSera), NaHCO3 (2 g/l; Penta) and 0.165 mol.l^−1 MOPS (Duchefa)—further as RPMI broth medium 1.
Biofilms were formed on commercially available sterile, polystyrene, flat-bottomed, 96-well microtiter plates (TPP, SW). Cell suspension (100 μl) was pipetted into selected wells of a microtiter plate and incubated without shaking for 2 hours at 37° C. Afterwards, the wells were washed twice with sterile PBS buffer (1.44 g Na2HPO4, 0.24 g KH2PO4, 0.2 g KCl and 8 g NaCl in 1 l distilled water, pH=7; Penta). Fresh RPMI broth medium 1 (100 μl) was added to each well and the plate was sealed with parafilm and incubated without shaking for 48 hours at 37° C.
Planktonic and non-adherent cells were removed by threefold washing of the biofilm with sterile PBS buffer (200 μl). A twofold serial dilution was used to reach required peptide concentration (in RPMI broth medium 1) in each well. Peptide concentrations range was between 0.39-200 μmol.l^−1. Plates were then sealed with parafilm and incubated for 20 hours at 37° C.
The metabolic activity of surviving Candida cells in the treated biofilm was determined by staining with XTT (2,3-Bis(2-methoxy-4-nitro-5-sulphophenyl)-2H-tetrazolium-5-carboxanilide). Stock solution of PMS (phenazine methosulfate; 7.5 g/l; SIGMA, Czech Republic) stored at −20° C. was diluted in PBS buffer 1:100. Diluted PMS was further mixed (2:25) with stock solution of XTT (0.5 g/l; Alchimica, Slovakia) dissolved in PBS/RPMI broth medium (1:1). Mixture (100 μl) of PMS and XTT was added into treated biofilm in the wells and incubated for 90 min at 37° C. Then the intensity of staining in each well was measured as absorbance at 540 nm on a Tecan Infinite M200 Pro reader (Tecan GmbH, Austria). Remaining metabolic activity of the cells in the biofilm was expressed for each well in percentage and calculated as follows:
[formula] where A is the absorbance of tested compound, ABL is the absorbance of negative control and AC is the absorbance of control untreated biofilm. The non-inoculated wells served as negative control. Inoculated wells not treated with compound served as positive control. Amphotericin B was used as control drug to ensure quality of Candida albicans. The values of remaining metabolic activity of treated biofilms are shown at Table 5.

in vitro = conditions: human
Protocol: The peptides in the concentrations 2-200 μmol.l^−1 were incubated with the suspension of human red blood cells (5% v/v) for 1 h at 37° C. in a physiological solution at a final volume of 0.2 ml. The samples were then centrifuged for 5 min at 250 g, and the absorbance of the supernatant was determined at 540 nm. Supernatants of red blood cells suspended in physiological solution and in 0.2% (v/v) TRITON X100 in physiological solution served as controls for zero hemolysis (blank) and 100% hemolysis, respectively. Hemolytic activity is expressed as the peptide concentration required for lysis of 50% of human erythrocytes in the assay (LC50).

[7] = tested on: S. aureus (Liberec) biofilm; experiment: Bacterial biofilm, remaining metabolic activity (MTT); assay type: cell-based, Staphylococcus aureus; conditions: remaining metabolic activity of biofilm, 20 h
Protocol: (§8) Inoculum of S. aureus (Liberec) or P. aeruginosa (Liberec) cultivated overnight in BHI medium was diluted with fresh BHI medium containing 1% glucose to a final concentration to be ca. 10^8 CFU/ml. Then this was pipetted (100 μl) to 96-multiwell polystyrene plate which was incubated at 37° C. under rotary shaking (300 RPM) for 24 h. Medium without bacteria in the wells was used as a negative control. Supernatant from each well was drained and the biofilm formed on the bottom and on the walls of the wells was cautiously washed three times by sterile physiological solution (300 μl). The peptides tested in the concentrations of 1-128 μmol.l^−1 were prepared by twofold serial dilution of their stock solution (1 mmol.l^−1) in fresh BHI medium and then pipetted (100 μl) to the wells with formed biofilms. The biofilms covered by BHI medium without peptide were used as a positive control. The plates were then incubated for 20 h as described above. After that the liquid was drained out and wells were washed twice with sterile physiological solution.
(§9) The metabolic activity of surviving bacterial cells in the biofilm was determined by staining with MTT (3-(4,5-dimethylthiazol-2-yl)-2,5-diphenyl-2H-tetrazolium bromide) as follows: The mixture of BHI medium (100 μl) and 10 μl of the stock solution of MTT (5 mg/ml in physiological solution) was added to each well and the plate was incubated 40 min at 37° C. The liquid was drained out and the insoluble formazan crystals formed by reduction inside the biofilm were dissolved with dimethyl sulphoxide (100 μl). The intensity of staining in each well was measured as absorbance at 540 nm on a Tecan Infinite M200 Pro reader (Tecan GmbH, Austria). Remaining activity of surviving cells inside the biofilm was expressed for each well in percentage according to the following equation:
(§10) [formula] where A is the absorbance of the tested compound, ABL is the absorbance of the negative control, and AC is the absorbance of control biofilm.

[8] = tested on: P. aeruginosa (Liberec) biofilm; experiment: as above; assay type: cell-based, Pseudomonas aeruginosa; conditions: remaining metabolic activity of biofilm, 20 h
Protocol: as §8, §9, §10

[9] = peptide concentration 6.25 μmol · l^−1, 20 hours
[10] = peptide concentration 12.5 μmol · l^−1, 20 hours
[11] = peptide concentration 25 μmol · l^−1, 20 hours
[12] = peptide concentration 50 μmol · l^−1, 20 hours
[13] = peptide concentration 100 μmol · l^−1, 20 hours
[14] = peptide concentration 200 μmol · l^−1, 20 hours
[15] = peptide concentration 8 μmol · l^−1
[16] = peptide concentration 16 μmol · l^−1
[17] = peptide concentration 32 μmol · l^−1
[18] = peptide concentration 64 μmol · l^−1
[19] = peptide concentration 128 μmol · l^−1

OC(Cn1cncn1)(Cn1cncn1)c1ccc(F)cc1F [Fluconazole, reference compound]
MIC [1]: 2 µM (≈ 0.613 µg/mL) | MIC [2]: 2.2 µM (≈ 0.674 µg/mL) | MIC [3]: 1.8 µM (≈ 0.551 µg/mL) | MIC [4]: 267 µM (≈ 81.7 µg/mL) | MIC (Candida glabrata DSY 565): 950 µM (≈ 291 µg/mL) | MIC (Candida krusei ATCC 6258): 516 µM (≈ 158 µg/mL) | MIC [5]: 49.3 µM (≈ 15.1 µg/mL) | Metabolic activity of C. albicans (%) [6, 9]: 33.5% | Metabolic activity of C. albicans (%) [6, 10]: 30.8% | Metabolic activity of C. albicans (%) [6, 11]: 31.7% | Metabolic activity of C. albicans (%) [6, 12]: 30.7% | Metabolic activity of C. albicans (%) [6, 13]: 32.4% | Metabolic activity of C. albicans (%) [6, 14]: 29.2%

Clc1ccccc1C(c1ccccc1)(c1ccccc1)n1ccnc1 [Clotrimazole, reference compound]
MIC [1]: 0.4 µM (≈ 0.138 µg/mL) | MIC [2]: 0.3 µM (≈ 0.103 µg/mL) | MIC [3]: 1.4 µM (≈ 0.483 µg/mL) | MIC [4]: 14.2 µM (≈ 4.9 µg/mL) | MIC (Candida glabrata DSY 565): 35 µM (≈ 12.1 µg/mL) | MIC (Candida krusei ATCC 6258): 1 µM (≈ 0.345 µg/mL) | MIC [5]: 4.6 µM (≈ 1.59 µg/mL) | Metabolic activity of C. albicans (%) [6, 9]: 39.7% | Metabolic activity of C. albicans (%) [6, 10]: 37.6% | Metabolic activity of C. albicans (%) [6, 11]: 34.2% | Metabolic activity of C. albicans (%) [6, 12]: 28.4% | Metabolic activity of C. albicans (%) [6, 13]: 21.8% | Metabolic activity of C. albicans (%) [6, 14]: 22.2%

H-GIMSSLMKKLAAIIKK-NH2 [IX]
CC50 at 1 h (in vitro): > 400 µM | Metabolic activity (%) S. aureus (Liberec) [7, 15]: 79.1% | Metabolic activity (%) S. aureus (Liberec) [7, 16]: 53.6% | Metabolic activity (%) S. aureus (Liberec) [7, 17]: 54.0% | Metabolic activity (%) S. aureus (Liberec) [7, 18]: 30.5% | Metabolic activity (%) S. aureus (Liberec) [7, 19]: 23.6% | Metabolic activity (%) P. aeruginosa (Liberec) [8, 15]: 73.6% | Metabolic activity (%) P. aeruginosa (Liberec) [8, 16]: 76.8% | Metabolic activity (%) P. aeruginosa (Liberec) [8, 17]: 85.3% | Metabolic activity (%) P. aeruginosa (Liberec) [8, 18]: 83.8% | Metabolic activity (%) P. aeruginosa (Liberec) [8, 19]: 34.2% | Metabolic activity of C. albicans (%) [6, 9]: 93.2% | Metabolic activity of C. albicans (%) [6, 10]: 54.3% | Metabolic activity of C. albicans (%) [6, 11]: 2.3% | Metabolic activity of C. albicans (%) [6, 12]: 1.5% | Metabolic activity of C. albicans (%) [6, 13]: 1.3% | Metabolic activity of C. albicans (%) [6, 14]: 0.8%
